This test concerns SW480. Nature of the test: drug sensitivity score (DSS, integrated dose-response area); higher = more sensitive (stronger viability reduction); extreme values may be limits of the assay. In short, it runs like this:
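After 7 days of induction with 0.1 µg/mL doxycycline, SW480 cells stably harbouring inducible control or SND1-targeting shRNA were plated at 1000 cells per well in 384-well plates preloaded with 525 small-molecule inhibitors at five concentrations. CellTiter-Glo viability readings were taken 72 h later. Drug sensitivity scores come from integrating the area under a fitted non-linear dose–response model.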

Where [1] appears, read: shRNA: SND1 shRNA1 (SND1 silenced).
Where [2] appears, read: shRNA: SND1 shRNA2 (SND1 silenced).
[3] abbreviates: shRNA: control shRNA (non-targeting).

With `C[C@]1(O)C[C@@H](c2nc(-c3ccc4ccc(-c5ccccc5)nc4c3)c3c(N)nccn32)C1` [Linsitinib], the drug sensitivity score was found to be 0 DSS under setting [1], 0.1 DSS under setting [2] and 0.2 DSS under setting [3].
On to `CC(C)(O)CC(=O)NCCn1ccc2ncnc(Nc3ccc(Oc4cccc(C(F)(F)F)c4)c(Cl)c3)c21` [TAK-285], for which the drug sensitivity score under setting [1] came to 0 DSS, the drug sensitivity score under setting [2] worked out at 0 DSS and the drug sensitivity score under setting [3] was 0 DSS.
In the case of `CN(C)c1nc(N(C)C)nc(N(C)C)n1` [Altretamine], the drug sensitivity score is, setting by setting: under setting [1], 0 DSS; under setting [2], 0 DSS; under setting [3], 0 DSS.
Consider `CCN(CC)C(=S)SSC(=S)N(CC)CC` [Disulfiram], for which the drug sensitivity score by setting is: under setting [1], 29.7 DSS; under setting [3], 28.6 DSS.
For the molecule `Cc1cccc(CC(=O)N2CCc3c2ccc(-c2cn(C)c4ncnc(N)c24)c3F)n1`, the drug sensitivity score under setting [1] came to 0 DSS, the drug sensitivity score under setting [2] was found to be 3.3 DSS and the drug sensitivity score under setting [3] came to 0 DSS.
As to `CNC(=O)c1cccc(-c2ccc3c(N4CCOC[C@@H]4C)nc(N4CCOC[C@@H]4C)nc3n2)c1` [AZD2014], the drug sensitivity score amounted to 13.2 DSS under setting [1], 12.6 DSS under setting [2] and 9.6 DSS under setting [3].
In the same order, the values of `Cc1nc(Nc2ncc(C(=O)Nc3c(C)cccc3Cl)s2)cc(N2CCN(CCO)CC2)n1` [Dasatinib] are 0.5 DSS, 6.2 DSS and 2.1 DSS.
Consider `C1=N/C2=N/c3ccc(OCCN4CCCC4)c(c3)COC/C=C/COCc3cccc(c3)C(=C1)N2` [Pacritinib], for which the drug sensitivity score under setting [1] worked out at 9.6 DSS and the drug sensitivity score under setting [3] came out at 10 DSS.
In the case of `Cc1ccc(Nc2nccc(N(C)c3ccc4c(C)n(C)nc4c3)n2)cc1S(N)(=O)=O` [Pazopanib], the drug sensitivity score by setting is: under setting [1], 0.5 DSS; under setting [2], 7.1 DSS; under setting [3], 1.8 DSS.
Regarding `CNCc1ccc(-c2[nH]c3cc(F)cc4c3c2CCNC4=O)cc1` [Rucaparib], the drug sensitivity score under setting [1] was determined as 0.3 DSS, the drug sensitivity score under setting [2] was determined as 3 DSS and the drug sensitivity score under setting [3] was 4.6 DSS.
Consider `COc1ccc(-c2ccc3c(N4CCOC[C@@H]4C)nc(N4CCOC[C@@H]4C)nc3n2)cc1CO` [AZD8055], for which the drug sensitivity score runs as follows: under setting [1], 20.6 DSS; under setting [2], 19.2 DSS; under setting [3], 14.9 DSS.
Turning to `NC(=O)Nc1cc(-c2cccc(F)c2)sc1C(=O)N[C@H]1CCCNC1` [AZD7762], the drug sensitivity score was found to be 7.8 DSS under setting [1], 8.6 DSS under setting [2] and 8.7 DSS under setting [3].
As to `O=C(c1ccc(F)c(F)c1Nc1ccc(I)cc1F)N1CC(O)([C@@H]2CCCCN2)C1` [Cobimetinib], the drug sensitivity score under setting [1] was 13.3 DSS and the drug sensitivity score under setting [3] amounted to 7.7 DSS.
With `O=C(NC[C@H](O)CO)c1ccncc1Nc1ccc(I)cc1F` [Pimasertib], the drug sensitivity score is, setting by setting: under setting [1], 26.3 DSS; under setting [2], 16.5 DSS; under setting [3], 7.4 DSS.
Taken in the same sequence, the figures for `CS(=O)(=O)c1ccc(C2=C(c3ccccc3)C(=O)OC2)cc1` [Rofecoxib] were 0 DSS, 0 DSS and 0 DSS.
Taken in the same sequence, the figures for `O=C(O)CCCc1ccc(N(CCCl)CCCl)cc1` [Chlorambucil] were 0 DSS, 0 DSS and 0 DSS.
`O=C(Nc1cccc(Nc2ncc(Br)c(NCCc3cnc[nH]3)n2)c1)N1CCCC1` [BX-912]: the drug sensitivity score runs as follows: under setting [1], 6.7 DSS; under setting [2], 6.5 DSS; under setting [3], 8.5 DSS.
As to `O=C(O)CC1CC(c2ccccc2)=NO1` (stereo not given) [VGX-1027], the drug sensitivity score reads like this: under setting [1], 0.2 DSS; under setting [2], 2.3 DSS; under setting [3], 0 DSS.
`COc1cc(C(=O)NC2CCN(C)CC2)c(F)cc1Nc1ncc2c(n1)N(C1CCCC1)CC(F)(F)C(=O)N2C` [TAK-960]: the drug sensitivity score worked out at 0.1 DSS under setting [1], 5.4 DSS under setting [2] and 3.6 DSS under setting [3].
Consider `CNC(=O)[C@@H](NC(=O)[C@H](CC(C)C)[C@H](O)C(=O)NO)C(C)(C)C` [Marimastat], for which the drug sensitivity score stood at 0 DSS under setting [1], 0 DSS under setting [2] and 0 DSS under setting [3].
In the case of `C=CC(=O)N1CCC[C@@H](n2nc(-c3ccc(Oc4ccccc4)cc3)c3c(N)ncnc32)C1` [Ibrutinib], the drug sensitivity score is, setting by setting: under setting [1], 0 DSS; under setting [2], 0.6 DSS; under setting [3], 0 DSS.

Values taken from the supplement of paper PMC9265050, “Inhibition of RNA Binding in SND1 Increases the Levels of miR-1-3p and Sensitizes Cancer Cells to Navitoclax” (Cancers, 2022).
